Values quoted from earlier work, collected in PMC10046020, “In Silico Screening and Optimization of Cell-Penetrating Peptides Using Deep Learning Methods” (Biomolecules, 2023).

settings: Spreadsheet S1: 150 CPP and 150 non-CPP peptides collected from CellPPD, MLCPP, CPPsite 2.0, Lifetein and other publications; cited from earlier work
Description: Supplement biomolecules-13-00522-s001.zip/biomolecules-2162660_Supplementary Spreadsheets S1 Test Set.csv, table | column: class || Supplement biomolecules-13-00522-s001.zip/biomolecules-2162660_Supplementary Spreadsheets S2 Train Set.csv, table | column: class

Row | Substance | class (CPP / Non-CPP), Test Set
1 | MPVMFYFSARNEVALVLVYFNFMIMMMH | Non-CPP
2 | RQIKIWFQNRRMKWKKGG | CPP
3 | TPTSPSSPGLSPVPPPDKVDGFSRRSLRRARPRR | Non-CPP
4 | FLPVLAGIAAKVVPALFCKITKKC | Non-CPP
5 | KLALKALKAALKPA | Non-CPP
6 | CLGSGEQCVRDTSCCSMSCTNNICF | Non-CPP
7 | KRKKKGKGLGKKRDPCLRKYK | CPP
8 | FKCRRWQWRMKKLG | CPP
9 | RLHRRLHRRLHRLHRRLHRLHRRLHRRLH | CPP
10 | GMNCSREYAHCTSAYV | Non-CPP
11 | QWGYGGMPYGGYGGMGGYGMGGYGMGY | Non-CPP
12 | IAARIFLRSRQHIKLRHL | Non-CPP
13 | TAMRAVDKLLLHLKKLFREGQFNRNFESIIICRDRT | CPP
14 | VTQADVGSALANLKIPGVGS | Non-CPP
15 | GRKKRRQ | CPP
16 | FGCKNFFWKTFTSC | Non-CPP
17 | WEAVVAYGRKKRRQRRR | CPP
18 | RQIKIWFQNRRMKWKKC | CPP
19 | GGTSSSDAQQSLQSFWPRVM | Non-CPP
20 | GWTLHSAGYLLGPHAI | Non-CPP
21 | KNLRRIIRKGIHIIKKYF | CPP
22 | FVPFFTHSELQKIREKERNKGQ | Non-CPP
23 | FVPIFTHSELQKIREKERNKGQ | Non-CPP

Row | Substance | class (CPP / Non-CPP), Test Set
24 | RRLTLRQLLGLGSRRRRRSR | CPP
25 | PVVHLTLRQAGDDFSR | Non-CPP
26 | KKLSECLKRIGDELDS | Non-CPP
27 | VKRFKKFFRKLKKLV | CPP
28 | LLGKGNLKALAALAKKIL | Non-CPP
29 | KKKKKKKKLLLLLLLL | Non-CPP
30 | FKCRRWQWRMKKLGKRSKNKGFKEQAKSLLKWILD | CPP
31 | VKKKKIKREIKIAAQRYGRELRRMADEFHV | CPP
32 | LAQLLAQLLAQLGGGGRRRRRRRRR | CPP
33 | MIRIAALNASSTIEDDHEGSFKSHKIQTKEAQEAE | Non-CPP
34 | FLGVVFKLASKVFPAVFGKV | Non-CPP
35 | QKVAFCDCCYDDIYTVEFKGCIFRPK | Non-CPP
36 | GFFTLIKAANKLINKTVNKEAGKGGLEIMA | Non-CPP
37 | GWTLNSAGYLLEPHAI | Non-CPP
38 | LELELELELELELELELELE | CPP
39 | FDPYALSEHDEERPQNVQSKSRTAELQAEIDDTVGI | Non-CPP
40 | RPKRPTTLNLFPQVPRSQDT | CPP
41 | WELVVAYGRKKRRQRRR | CPP
42 | NAATATRGRSAASRPTQRPRAPARSASRPRRPVQ | CPP
43 | FKCRRWQWRMKKLGAPSITCVRRAF | CPP
44 | IAARIKLRSRQHIKLRHL | Non-CPP
45 | DFDMLRCMLGRVYRPCWQV | Non-CPP
46 | CKYGRKKRRQRRR | CPP

Row | Substance | class (CPP / Non-CPP), Test Set
47 | GWTNLSAQYLLGPPPGFSPFR | Non-CPP
48 | GGVCPKILRRCRRDSDCPGACICRGNGYCGSGSD | CPP
49 | GDCLPHLKLCKENKGCCSKKCKRRGTNIEKRCR | CPP
50 | KKKKKKKKK | CPP
51 | AAVALLPAVLLALLAKNNLKECGLY | CPP
52 | TERQIKIWFQNRRMK | Non-CPP
53 | APKRKSGVSK | CPP
54 | KKLSECLKRIGDELDN | Non-CPP
55 | EMCILIDENDNKIGADTKKNCHLNENIDKGLLHRA | Non-CPP
56 | MLPRLICINDYEQHAKSVLPKSIYDYYRSGANDEE | Non-CPP
57 | GRCTKSIPPICFPA | CPP
58 | GIVEQCCDTPCSLYDPENYCN | Non-CPP
59 | LLGDFFRKSKEKIGKEFKRIVQRIKDFLRNLVPRTES | CPP
60 | AGYLLGHINLHHLAHLHHIL | CPP
61 | GAPRLVLLFSGKRKSGKDFVTEA | Non-CPP
62 | TAQVFFNVYKKAKPN | Non-CPP
63 | CGGGRRRRRRRRRLLLL | CPP
64 | GRGDGPRRKKKKGPRRKKKKGPRR | CPP
65 | DVVRVWFCNRRQKGKR | CPP
66 | ACRGRGRGCGSGSGSCG | CPP
67 | FLPLLAGVVANFLPQIICKIARKC | Non-CPP
68 | KETWWETWWTEWSQPKKRKV | CPP
69 | APVTGAHMAYVDYWVPCQFTECSGEYVTEEYRKA | Non-CPP

Row | Substance | class (CPP / Non-CPP), Test Set
70 | LSNTLAELYVREHLR | Non-CPP
71 | GNGEQREMAVSRLRDCLDRQA | CPP
72 | GRCTKSIPPICWPD | CPP
73 | NSDMAHERKFMWQYNR | Non-CPP
74 | PKKGSKKAVTKAQKKDGA | CPP
75 | IVMVGDGGVGKSAMTIQFIQSTFV | Non-CPP
76 | ARFSNPGVWSKVAADIFNMALDTALA | Non-CPP
77 | YGRKKRRQRRRPPLRKKKKKH | CPP
78 | TERQGKIWFQNRRMK | Non-CPP
79 | YGDCLPHLKLCKENKDCCSKKCKRRGTNIEKRCR | CPP
80 | GLKKLAELAHKLLKLGC | CPP
81 | RRRRRRRRRRWWWWWW | CPP
82 | HADGLFTSGYSKLLGQLSARRYLESLI | Non-CPP
83 | DKLGVWFIWANNASVFHAYHLKC | Non-CPP
84 | KLFNGNEVCLDPKEKWVQKVVQIFLK | Non-CPP
85 | YGRKKRRQRRRGC | CPP
86 | LLKHTALLKTTALLKTTA | Non-CPP
87 | VGALAVVVWLWLWLWAGSGPKKKRKVC | CPP
88 | LLKTTALLKTTALHKTTA | Non-CPP
89 | CREKAKKLFKKILKKL | CPP
90 | TRSSRAGLQFPVGRVIIRLLRK | CPP
91 | FLGALFKVASKVLPSVFCAITKKC | Non-CPP
92 | PKKKRKVRRRRRRRPQMQQNVFQYPGAGMVPQGEANF | CPP

Row | Substance | class (CPP / Non-CPP), Test Set
93 | CPLDQFECGGDEPG | Non-CPP
94 | RGGRLCYCRRRFCVCVGR | CPP
95 | HTPGNSNKWKHLQENKKGRPRR | CPP
96 | NAKTRRHERRRKLAIER | CPP
97 | AITFYPFAPNQITCIHE | Non-CPP
98 | ELFSPIAIAVLGSCVL | Non-CPP
99 | QSGAKPGHCEWQSTHLKNCEKVNDIRQPPHHQRS | Non-CPP
100 | KWRRKLKKLRPKKKRKV | CPP
101 | GCCSHPACNVNNPHICG | Non-CPP
102 | YTMQMLLEIHRKNW | Non-CPP
103 | RARRNRRARILFQYRARNRARN | CPP
104 | WRRRYRRWRRRRRWRRRPRR | CPP
105 | YTPNDITLNNSVALDPIDISIELNKAKSDLEESKE | Non-CPP
106 | ARRRCSDRFRNCPADEALCGRRR | CPP
107 | AGYLLGKTNLKALAALAKKIL | CPP
108 | PDEIGGKFPTAYVQDYLINPE | Non-CPP
109 | LNSAGYLLGKPKALAALAK | Non-CPP
110 | RPEGQNYTEGIAVVF | Non-CPP
111 | HDEFERHAEGTFTSDVFSYLEGQAAKEFIAWLVKGR | Non-CPP

same assay, conditions: Spreadsheet S2: peptides collected from CellPPD, MLCPP, CPPsite 2.0, Lifetein and other publications; cited from earlier work

Row | Substance | class (CPP / Non-CPP), Train Set
112 | IYLATALAKWALKQGFGGRRRRRRR | CPP
113 | IYLATALAKWALKQGGRRRRRRR | CPP
114 | RRRRRRRGGIYLATALAKWALKQGF | CPP

same assay, conditions: cited from earlier work

Row | Substance | class (CPP / Non-CPP), Test Set
115 | REDEDEIEW | CPP
116 | HATKSQNINF | CPP
117 | YARVRRRGPRRR | CPP
118 | FKMHEN | Non-CPP
119 | LRKLRKRLLR | CPP
120 | RLLRLLRLL | CPP
121 | VQQQQPLGQQQP | Non-CPP
122 | MEPLWWANYDNTQ | Non-CPP
123 | EGGGPQWAVGHFM | Non-CPP
124 | NTCTWLKYHS | CPP
125 | RRLLRRLRR | CPP
126 | RRRRRRWWW | CPP
127 | QIMISA | Non-CPP
128 | RKKAAA | CPP
129 | QIFWDSRHPSQH | Non-CPP
130 | CARSKNKDC | CPP

Row | Substance | class (CPP / Non-CPP), Test Set
131 | RRRRRRRRK | CPP
132 | QNLGNDWAVGHLM | Non-CPP
133 | QNLGNQWAVGHLM | Non-CPP
134 | SARRRRRREW | CPP
135 | KFFKFFKFFK | CPP
136 | NYRWRCKNQ | CPP
137 | CSKSSDYQC | CPP
138 | CRGDKGDPC | CPP
139 | YGRGGRRGRRR | CPP
140 | KNNLKECGLY | CPP
141 | KRKRWHW | CPP
142 | CYFQNCPRG | Non-CPP
143 | QGARNYKCCFAWC | Non-CPP
144 | WRWKKKKA | CPP
145 | HHHHHHHHH | CPP
